From patent US20030120073A1, “Alpha-ketocarboxylic acid based inhibitors of phosphoryl tyrosine phosphatases” (priority 2001, published 2003)
Read-outs that look alike come from different tables or passages of the source.

Key:
[1] = biological target: T1, Yersinia PTPase (Yersinia enterocolitica, UniProt P15273); assay: biochemical; assay type: biochemical
T1 construct: purchased Calbiochem

[2] = biological target: T2, PTP1B (Homo sapiens, UniProt P18031); settings: absence of DMSO, acetate buffer pH 5.5; reference 1; read-out: Km of substrate, PTP1B (reported); cited from earlier work
T2 construct: purchased Calbiochem
T2 sequence (P18031 1-435): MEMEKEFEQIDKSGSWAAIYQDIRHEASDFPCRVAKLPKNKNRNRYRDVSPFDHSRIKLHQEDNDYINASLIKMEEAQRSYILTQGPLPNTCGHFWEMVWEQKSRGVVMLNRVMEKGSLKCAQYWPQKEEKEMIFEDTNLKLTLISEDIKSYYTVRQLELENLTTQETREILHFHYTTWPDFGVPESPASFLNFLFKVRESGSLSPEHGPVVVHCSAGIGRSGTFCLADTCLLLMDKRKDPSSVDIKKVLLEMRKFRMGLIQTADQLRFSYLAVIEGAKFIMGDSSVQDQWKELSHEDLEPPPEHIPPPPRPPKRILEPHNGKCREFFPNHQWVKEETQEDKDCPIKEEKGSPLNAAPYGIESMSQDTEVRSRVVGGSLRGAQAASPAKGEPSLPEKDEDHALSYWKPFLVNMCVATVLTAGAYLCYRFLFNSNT

[3] = biological target: T2, PTP1B; assay: PTP1B assay (p-NPP hydrolysis, UV at 420 nm); assay type: biochemical; settings: 100 mM acetate pH 5.5, 10% DMSO; read-out: Km of substrate, PTP1B
Procedure: PTP1B Assay: PTP1B (purchased from Calbiochem) was assayed usingp-NPP as the substrate and the reaction progress was monitored by UV spectroscopy. Initial rates were determined by monitoring the hydrolysis of p-NPP at 420 nm, from 10 to 120 s after mixing. Assay solutions contained 1.2 mM substrate, 1 mM EDTA, 100 mM NaCl, and 100 mM acetate at pH 5.5, and 10% DMSO. IC50 values were calculated using a Dixon analysis. Data analysis was performed with the commercial graphing package Grafit (Erithacus Software Ltd.).

[4] = biological target: T3, LAR PTPase (Homo sapiens, UniProt P10586); assay: LAR PTPase assay (p-NPP hydrolysis, UV at 420 nm); assay type: biochemical; settings: 100 mM acetate pH 5.5, 10% DMSO; read-out: Km of substrate, LAR
T3 construct: purchased Calbiochem
T3 sequence (P10586 1301-1639 limits assumed): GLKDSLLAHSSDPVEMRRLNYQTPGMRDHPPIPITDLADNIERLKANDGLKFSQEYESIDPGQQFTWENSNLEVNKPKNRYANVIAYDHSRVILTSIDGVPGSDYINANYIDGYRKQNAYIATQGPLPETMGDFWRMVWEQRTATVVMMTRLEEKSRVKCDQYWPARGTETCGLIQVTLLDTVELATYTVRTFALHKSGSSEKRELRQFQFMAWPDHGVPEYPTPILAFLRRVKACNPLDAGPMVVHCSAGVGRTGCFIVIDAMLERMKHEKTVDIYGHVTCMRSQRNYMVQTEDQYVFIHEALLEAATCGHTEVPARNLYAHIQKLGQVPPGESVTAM

T1 sequence (P15273 whole entry): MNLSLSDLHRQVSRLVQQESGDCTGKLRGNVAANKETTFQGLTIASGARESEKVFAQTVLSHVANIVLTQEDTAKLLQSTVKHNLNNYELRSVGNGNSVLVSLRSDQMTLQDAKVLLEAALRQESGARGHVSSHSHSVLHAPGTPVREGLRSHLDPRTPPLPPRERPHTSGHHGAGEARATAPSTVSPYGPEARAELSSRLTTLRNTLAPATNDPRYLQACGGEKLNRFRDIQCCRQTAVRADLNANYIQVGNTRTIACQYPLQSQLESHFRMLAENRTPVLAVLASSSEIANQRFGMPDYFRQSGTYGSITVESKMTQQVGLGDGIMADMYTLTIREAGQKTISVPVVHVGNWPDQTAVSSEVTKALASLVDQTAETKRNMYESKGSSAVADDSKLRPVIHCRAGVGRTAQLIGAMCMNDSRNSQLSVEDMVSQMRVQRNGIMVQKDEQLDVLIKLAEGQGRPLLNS

In the case of `O=C(O)C(=O)c1ccccc1` [Compound 1], the IC50 [1] is reported as 2700 µM.

`O=C(O)C(=O)c1c[nH]c2ccccc12` [Compound 8] gave an IC50 [1] of 390 µM.

Compound `COc1ccc(C(=O)C(=O)O)cc1` [Compound 10] has an IC50 [1] of 150 µM.

In the case of `O=C(O)C(=O)c1ccco1` [Compound 11], the Ki [1] is reported as 79 µM.

For `O=C(O)C(=O)c1ccc(O)cc1` [Compound 27], the IC50 [1] was 200 ± 20 µM.

For `O=[N+]([O-])c1ccc(OP(=O)(O)O)cc1` [p-NPP], the Km [2] is given as 750 µM, the Km [3] is given as 620 µM and the Km ([1]; pH 5.5, read-out: Km of substrate, Yersinia PTPase) is given as 2500 µM. The Km [4] was 2100 µM.
